Where two headings read alike, the source gives them in different places.
Experiments:
[1] = Instantaneous solubility: vigorously mixed with water at room temperature (25° C.); assay type: physicochemical; details: in water at room temperature, absence of compounds that enhance solubility
Description: (§1) The composition can optionally be expressed in terms of the concentration of one or more steviol glycoside(s). […] Clear solutions without precipitates are considered soluble. Unless indicated otherwise herein, the term “solubility” refers to “equilibrium solubility.”

[2] = Equilibrium solubility: mixed with deionized water at 80° C. for 15 minutes, cooled to room temperature, observed at least four days; assay type: physicochemical; details: after heating to 80° C. for 15 minutes
Description: as §1

[3] = in beverage formulations; cited from earlier work
[4] = cited from earlier work
[5] = Observation for solubility / precipitation of acid and steviol glycoside samples in water (Example I); details: 0.3% steviol glycoside; 5:1 and 2:1 molar ratio of pamoic acid to steviol glycoside; pH not adjusted

Compound: C=C1C[C@@]23CC[C@H]4[C@@](C)(CCC[C@@]4(C)C(=O)O[C@@H]4O[C@H](CO)[C@@H](O)[C@H](O)[C@H]4O[C@@H]4O[C@H](CO)[C@@H](O)[C@H](O)[C@H]4O)[C@@H]2CC[C@]1(O[C@@H]1O[C@H](CO)[C@@H](O)[C@H](O[C@@H]2O[C@H](CO)[C@@H](O)[C@H](O)[C@H]2O)[C@H]1O[C@@H]1O[C@H](CO)[C@@H](O)[C@H](O)[C@H]1O)C3 [Rebaudioside D, rebaudioside D]
- instantaneous solubility [1]: less than 0.08%
- equilibrium solubility [2]: 0.08%

Compound: C=C1C[C@@]23CC[C@H]4[C@@](C)(CCC[C@@]4(C)C(=O)O[C@@H]4O[C@H](CO)[C@@H](O)[C@H](O[C@@H]5O[C@H](CO)[C@@H](O)[C@H](O)[C@H]5O)[C@H]4O[C@@H]4O[C@H](CO)[C@@H](O)[C@H](O)[C@H]4O)[C@@H]2CC[C@]1(O[C@@H]1O[C@H](CO)[C@@H](O)[C@H](O[C@@H]2O[C@H](CO)[C@@H](O)[C@H](O)[C@H]2O)[C@H]1O[C@@H]1O[C@H](CO)[C@@H](O)[C@H](O)[C@H]1O)C3 [Rebaudioside M, rebaudioside M]
- aqueous solubility and dissolution qualities [3]: poor aqueous solubility
- instantaneous solubility [1]: about 0.13%
- equilibrium solubility [2]: about 0.2%

Compound: CC(=O)O[C@@H](C(=O)O)c1ccccc1 [acetyl-r-mandelic acid]
- solubility (ppm) ([4]; temperature 25 ° C.): 1.11E+04 ppm

Compound: O=C(O)C(CO)c1ccccc1 (stereo not drawn) [alpha-(hydroxymethyl)benezeneacetic acid]
- solubility (ppm) ([4]; temperature 20 ° C.): 1.91E+04 ppm

Compound: O=C(O)[C@@H](O)c1ccccc1 [alpha-hydroxybenzeneacetic acid, (S)]
- solubility (ppm) ([4]; temperature 25 ° C.): 9.26E+04 ppm

Compound: O=C(O)C(=O)c1ccccc1 [alpha-oxobenzeneacetic acid]
- solubility (ppm) ([4]; temperature 0 ° C.): 4.79E+05 ppm

Compound: Nc1ccccc1C(=O)O [aniline-2-carboxylic acid]
- solubility (ppm) ([4]; temperature 20 ° C.): 3.48E+03 ppm

Compound: Nc1cccc(C(=O)O)c1 [aniline-3-carboxylic acid]
- solubility (ppm) ([4]; temperature 14.9 ° C.): 5.87E+03 ppm

Compound: Nc1ccc(C(=O)O)cc1 [aniline-4-carboxylic acid]
- solubility (ppm) ([4]; temperature 25 ° C.): 4.98E+03 ppm

Compound: O=C(O)CCc1ccccc1 [benzenepropanoic acid]
- solubility (ppm) ([4]; temperature 20 ° C.): 5.87E+03 ppm

Compound: CCNC(=O)COC(=O)c1ccccc1OC(C)=O [benzoic acid, 2-(acetyloxy)-, 2-(ethylamino)-2-oxoethyl ester]
- solubility (ppm) ([4]; temperature 21 ° C.): 5.49E+03 ppm

Compound: CN(CCO)C(=O)COC(=O)c1ccccc1O [benzoic acid, 2-hydroxy-, 2-[(2-hydroxyethyl)methylamino]-2-oxoethyl ester]
- solubility (ppm) ([4]; temperature 21 ° C.): 6.26E+03 ppm

Compound: O=C(O[C@@H](C(=O)O)c1ccccc1)c1ccccc1 [benzoyl-r-mandelic acid]
- solubility (ppm) ([4]; temperature 25 ° C.): 7.78E+03 ppm

Compound: N[C@@H](CSCSC[C@H](N)C(=O)O)C(=O)O [djenkolic acid]
- solubility (ppm) ([4]; temperature 100 ° C.): 4.98E+03 ppm

Compound: CCOc1ccc(NC(=O)C(O)C(O)C(=O)O)cc1 (stereo not drawn) [ethonyphenyl tartramic acid]
- solubility (ppm) ([4]; temperature 14 ° C.): 3.97E+03 ppm

Compound: O=C(O)c1cc2c(cc1C(=O)O)OCO2 [hydrastic acid]
- solubility (ppm) ([4]; temperature 15 ° C.): 5.96E+03 ppm

Compound: CC(=O)N(CC(C)C(=O)O)c1c(I)cc(I)c(N)c1I (stereo not drawn) [iocetamic acid]
- solubility (ppm) ([4]; temperature 37 ° C.): 5.26E+03 ppm

Compound: CCC(COCCOc1c(I)cc(I)c(NC(C)=O)c1I)C(=O)O (stereo not drawn) [iopronic acid]
- solubility (ppm) ([4]; temperature 37 ° C.): 1.97E+04 ppm

Compound: CC(C)C1C(=O)NC(=O)NC1=O [isopropylbarbituric acid]
- solubility (ppm) ([4]; temperature 20 ° C.): 5.89E+03 ppm

Compound: O=C(O)c1cccc(O)c1 [m-hydroxybenzoic acid]
- solubility (ppm) ([4]; temperature 20 ° C.): 8.45E+03 ppm

Compound: O=C(O)c1cccc([N+](=O)[O-])c1 [m-nitrobenzoic acid]
- solubility (ppm) ([4]; temperature 25 ° C.): 3.53E+03 ppm

Compound: O=C(O)C(O)c1ccccc1 (stereo not drawn) [mandelic acid (almonds), mandelic acid]
- solubility (ppm) ([4]; temperature 25 ° C.): 1.53E+05 ppm

Compound: O=C(O)c1ccccc1[N+](=O)[O-] [o-nitrobenzoic acid]
- solubility (ppm) ([4]; temperature 25 ° C.): 7.44E+03 ppm

Compound: CCCCCCCCC(C(=O)O)C(=O)O [octylpropanedioic acid]
- solubility (ppm) ([4]; temperature 25 ° C.): 5.53E+03 ppm

Compound: O=C(O)C(=O)Nc1ccccc1 [oxanilic acid]
- solubility (ppm) ([4]; temperature 25 ° C.): 8.17E+03 ppm

Compound: O=C(O)c1ccc(O)cc1 [p-hydroxybenzoic acid]
- solubility (ppm) ([4]; temperature 25 ° C.): 6.36E+03 ppm

Compound: O=C(O)C(=O)c1ccccc1C(=O)O [phthalonic acid]
- solubility (ppm) ([4]; temperature 15 ° C.): 3.49E+05 ppm

Compound: CC1=NN(c2ccc([N+](=O)[O-])cc2)C(=O)C1[N+](=O)[O-] (stereo not drawn) [picrolonic acid]
- solubility (ppm) ([4]; temperature 17 ° C.): 8.92E+03 ppm

Compound: CCCOC(=O)OC(C)C(=O)OC (stereo not drawn) [propanoic acid, 2-[(propoxycarbonyl)oxy]-, methyl ester]
- solubility (ppm) ([4]; temperature 25 ° C.): 5.15E+03 ppm

Compound: CCC(=O)O[C@@H](C(=O)O)c1ccccc1 [propionyl-r-mandelic acid]
- solubility (ppm) ([4]; temperature 25 ° C.): 5.15E+03 ppm

Compound: O=C(O)c1cc(C(=O)O)c(C(=O)O)cc1C(=O)O [pyromellitic acid]
- solubility (ppm) ([4]; temperature 16 ° C.): 1.40E+04 ppm

Compound: O=C(O)[C@]1(O)C[C@@H](O)[C@@H](O)[C@H](O)C1 [quinic acid (coffee beans), quinic acid]
- solubility (ppm) ([4]; temperature 9 ° C.): 2.25E+05 ppm

Compound: CC(C)(C(=O)O)C(C)(C)C(=O)O [tetramethylbutanedioic acid]
- solubility (ppm) ([4]; temperature 13.5 ° C.): 4.78E+03 ppm

Compound: CCCC/C=C/C(=O)O [trans-2-heptenoic acid]
- solubility (ppm) ([4]; temperature 25 ° C.): 5.37E+03 ppm

Compound: O=C(O)CCCCCCCCCC(=O)O [undecanedioic acid]
- solubility (ppm) ([4]; temperature 21 ° C.): 5.07E+03 ppm

Compound: pamoic acid
- solubility of sample (conclusion) [5]: not initially soluble and remained insoluble at least after 1 day

Reference: patent US11717549B2, “Steviol glycoside solubility enhancers” (CARGILL, INCORPORATED, priority 2017, dated 2023)
